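Dose response: 5 concentrations. Exposure: 48 h. Format: 96-well plates. Endpoint: linear interpolation; highest concentration if not reached. GI50 marks 50% less growth. TGI: concentration producing complete growth inhibition.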
Experiments:
Assay in all cases: NCI anticancer screen, dose series, 48 h; in the data active = GI50 below about 0.43 µM; inactive = the rest
[1] = tested on: A549 NSCLC
[2] = tested on: UO-31 renal
[3] = tested on: IGROV1 ovarian
[4] = tested on: NCI-H522 lung
[5] = tested on: NCI-H226 lung
[6] = tested on: SK-OV-3 ovarian
[7] = tested on: HL-60(TB) leukemia
[8] = tested on: SF-268 CNS
[9] = tested on: CCRF-CEM leukemia
[10] = tested on: K-562 leukemia
[11] = tested on: SNB-19 CNS
[12] = tested on: NCI-H460 lung
[13] = tested on: RPMI-8226 leukemia
[14] = tested on: SK-MEL-28 melanoma
[15] = tested on: HCT-15 colon
[16] = tested on: SN12C renal
[17] = tested on: HCC-2998 colon
[18] = tested on: EKVX NSCLC
[19] = tested on: HT29 colon
[20] = tested on: SF-539 CNS
[21] = tested on: SW-620 colon
[22] = tested on: CAKI-1 renal
[23] = tested on: DU-145 prostate
[24] = tested on: SF-295 CNS
[25] = tested on: 786-0 renal
[26] = tested on: KM12 colon
[27] = tested on: ACHN renal
[28] = tested on: OVCAR-3 ovarian
[29] = tested on: SNB-75 CNS
[30] = tested on: MOLT-4 leukemia
[31] = tested on: OVCAR-5 ovarian
[32] = tested on: OVCAR-4 ovarian
[33] = tested on: U251 CNS
[34] = tested on: HOP-62 NSCLC
[35] = tested on: LOX IMVI melanoma
[36] = tested on: UACC-62 melanoma
[37] = tested on: OVCAR-8 ovarian
[38] = tested on: NCI-H23 lung
[39] = tested on: T-47D breast
[40] = tested on: MDA-MB-231 breast
[41] = tested on: UACC-257 melanoma
[42] = tested on: MDA-MB-435
[43] = tested on: M14 melanoma
[44] = tested on: HS 578T breast
[45] = tested on: BT-549 breast
[46] = tested on: HOP-92 NSCLC
[47] = tested on: MALME-3M melanoma
[48] = tested on: HCT-116 colon
[49] = tested on: PC-3 prostate
[50] = tested on: COLO 205 colon
[51] = tested on: RXF 393 renal
[52] = tested on: NCI/ADR-RES ovarian
[53] = tested on: SK-MEL-2 melanoma
[54] = tested on: TK-10 renal
[55] = tested on: SR leukemia
[56] = tested on: A498 renal
[57] = tested on: MCF7 breast
[58] = tested on: SK-MEL-5 melanoma

CN1CCN(c2ccc3[nH]c(C4=C(O)C(=O)[C@@H]5C(=C4O)N=C(CO)N5C)nc3n2)CC1
> 100 µM: TGI [1] | TGI [2] | TGI [3] | TGI [4] | TGI [5] | TGI [6] | TGI [7] | TGI [8] | TGI [9] | TGI [10] | TGI [11] | TGI [12] | TGI [13] | TGI [14] | TGI [15] | TGI [16] | TGI [17] | TGI [18] | TGI [19] | TGI [20] | TGI [21] | TGI [22] | TGI [23] | TGI [24] | TGI [25] | TGI [26] | TGI [27] | TGI [28] | TGI [29] | TGI [30] | TGI [31] | TGI [32] | TGI [33] | TGI [34] | TGI [35] | TGI [36] | TGI [37] | TGI [38] | TGI [39] | TGI [40] | TGI [41] | TGI [42] | TGI [43] | TGI [44] | TGI [45] | TGI [46] | TGI [47] | TGI [48] | TGI [49] | TGI [50] | TGI [51] | TGI [52]

N#C/C(=C\c1ccc(F)cc1)n1nc2cccc(F)c2n1
9.15 µM: TGI [46]
14.8 µM: TGI [52]
4.62 µM: TGI [42]
87.1 µM: TGI [13]
11.1 µM: TGI [20]
27 µM: TGI [51]
7.25 µM: TGI [56]
12.9 µM: TGI [12]
8.09 µM: TGI [29]
7.68 µM: TGI [7]
> 100 µM: TGI [1] | TGI [2] | TGI [3] | TGI [4] | TGI [5] | TGI [8] | TGI [9] | TGI [10] | TGI [11] | TGI [14] | TGI [15] | TGI [16] | TGI [17] | TGI [18] | TGI [53] | TGI [19] | TGI [54] | TGI [21] | TGI [22] | TGI [23] | TGI [24] | TGI [55] | TGI [25] | TGI [26] | TGI [27] | TGI [28] | TGI [30] | TGI [31] | TGI [32] | TGI [33] | TGI [34] | TGI [36] | TGI [37] | TGI [38] | TGI [39] | TGI [40] | TGI [43] | TGI [45] | TGI [47] | TGI [57] | TGI [48] | TGI [49] | TGI [50] | TGI [58]
inactive: GI50 [1] 4.01 µM | GI50 [2] 3.65 µM | GI50 [3] 5.01 µM | GI50 [4] 3.24 µM | GI50 [5] 4.64 µM | GI50 [7] 2690 nM | GI50 [8] 4.99 µM | GI50 [9] 3.24 µM | GI50 [10] 3.25 µM | GI50 [11] 6.67 µM | GI50 [12] 3.01 µM | GI50 [13] 3.09 µM | GI50 [14] 5.8 µM | GI50 [15] 2580 nM | GI50 [16] 3.84 µM | GI50 [17] 7.14 µM | GI50 [18] 3.8 µM | GI50 [53] 5.26 µM | GI50 [19] 3.89 µM | GI50 [54] 7.01 µM | GI50 [20] 3.14 µM | GI50 [21] 3.45 µM | GI50 [22] 5.17 µM | GI50 [23] 3.2 µM | GI50 [24] 3.53 µM | GI50 [55] 2310 nM | GI50 [25] 7.13 µM | GI50 [26] 2830 nM | GI50 [27] 5.41 µM | GI50 [28] 2750 nM | GI50 [29] 2370 nM | GI50 [30] 3.09 µM | GI50 [31] 5.04 µM | GI50 [32] 4.19 µM | GI50 [56] 2040 nM | GI50 [33] 3.52 µM | GI50 [34] 3.54 µM | GI50 [35] 2920 nM | GI50 [36] 3.3 µM | GI50 [37] 5.06 µM | GI50 [38] 3.9 µM | GI50 [39] 4.2 µM | GI50 [40] 5.55 µM | GI50 [42] 1890 nM | GI50 [43] 3.27 µM | GI50 [45] 4.72 µM | GI50 [46] 2100 nM | GI50 [47] 5.03 µM | GI50 [57] 2240 nM | GI50 [48] 3.57 µM | GI50 [49] 4.68 µM | GI50 [50] 4.16 µM | GI50 [51] 2720 nM | GI50 [52] 2990 nM | GI50 [58] 3.76 µM
9.76 µM: TGI [35]
